Literature values as cited in patent US7884104B2, “Aminopiperidines as dipeptidyl peptidase-IV inhibitors for the treatment or prevention of diabetes” (Merck Sharp & Dohme Corp., priority 2004, dated 2011).
Values belong to the molecule of their own block, whether it stands above or below them.

What was measured:
hematopoiesis = conditions: mouse, cyclophosphamide-induced neutropenia
DPP-IV = target: T1, DPP-IV (Homo sapiens, UniProt P27487)
T1 construct: GRF is rapidly degraded in plasma to GRF[344]; host or cells: plasma (endogenous enzyme activity)
T1 sequence (P27487 39-766 limits assumed, species assumed): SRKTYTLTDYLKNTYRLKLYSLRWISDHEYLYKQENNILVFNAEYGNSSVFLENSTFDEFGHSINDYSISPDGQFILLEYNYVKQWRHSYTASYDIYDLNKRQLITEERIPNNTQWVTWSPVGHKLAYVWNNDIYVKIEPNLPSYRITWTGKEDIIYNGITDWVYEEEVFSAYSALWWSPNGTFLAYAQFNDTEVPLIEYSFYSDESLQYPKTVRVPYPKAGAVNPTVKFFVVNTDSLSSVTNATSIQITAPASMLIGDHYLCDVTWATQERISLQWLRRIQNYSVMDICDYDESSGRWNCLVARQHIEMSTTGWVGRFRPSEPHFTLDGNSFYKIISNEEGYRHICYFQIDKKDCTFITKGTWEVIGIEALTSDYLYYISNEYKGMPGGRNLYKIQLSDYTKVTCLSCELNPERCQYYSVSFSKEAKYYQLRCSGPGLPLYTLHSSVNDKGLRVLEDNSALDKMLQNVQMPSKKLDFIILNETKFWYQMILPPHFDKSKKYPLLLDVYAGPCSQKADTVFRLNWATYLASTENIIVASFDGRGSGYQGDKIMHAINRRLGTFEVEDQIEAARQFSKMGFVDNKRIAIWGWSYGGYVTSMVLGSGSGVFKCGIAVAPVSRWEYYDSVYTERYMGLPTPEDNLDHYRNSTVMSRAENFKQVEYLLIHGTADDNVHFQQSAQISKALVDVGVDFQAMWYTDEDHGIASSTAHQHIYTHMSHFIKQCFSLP

cardiac allograft = conditions: rats; doubled from day 7 to day 14

Molecule: CC(C)[C@H](N)C(=O)N1CCC[C@H]1B(O)O [Val-Boro-Pro]
effect on hematopoiesis (hematopoiesis): stimulated hematopoiesis

effect on degradation of GRF in plasma (DPP-IV): prevented
Molecule: diprotin A

Molecule: CC(C)N1CCC(c2ccccc2)(c2ccccc2)CC1 [Prodipine, Pro-Pro-diphenyl-phosphonate]
cardiac allograft survival (cardiac allograft): 14 day
